Reference: patent publication US20170306040A1, “COMBINATION THERAPY OF AN AFUCOSYLATED CD20 ANTIBODY WITH A CD22 ANTIBODY-DRUG CONJUGATE” (Hoffmann-La Roche Inc., priority 2013, published 2017)

System: WSU-DLCL2 lymphoma cells
Experimental: The tumor cell line was routinely cultured in DMEM containing 10% FCS (Gibco) at 37° C. in a water-saturated atmosphere at 5% CO2. Passage 15 was used for transplantation in human CD16 transgenic Scid mice. […] Expression of CD20 and CD22 was confirmed on WSU-DLCL2 lymphoma cells by FACS. […] Mean fluorescence was measured using the plate protocol in the FACS CantoII (Software FACS Diva).
60 SCID FcgR3 transgenic female mice (SCID CD16 tg mice), age 7-8 weeks at start of experiment (purchased from Charles River), were maintained under specific-pathogen-free condition with daily cycles of 12 h light/12 h darkness according to committed guidelines (GV-Solas; Felasa; TierschG). […] After arrival animals were maintained for one week to get accustomed to new environment and for observation. Continuous health monitoring was carried out on regular basis.
Animals were randomized for CD16 Expression on murine NK cells with an average of 70%. Treatment started 12 days after cell transplantation. […] The CD22-ADC was given once on study day 12 at the dose of 4 mg/kg. The antibody dilutions were prepared freshly from stock before use. The study was terminated on day 273.
Animals were controlled daily for clinical symptoms and detection of adverse effects. Termination criteria for animals were visible sickness: scruffy fur, arched back, heavy breathing, impaired locomotion, HLP (hind leg paralysis). Mice were sacrificed according to the termination criteria.
Survival data were statistically analyzed by pairwise Wilcoxon and pairwise log-rank test.
The diffuse large B-cell lymphoma cell line WSU-DLCL2 was intravenously inoculated (5×10^6 cells) into the tail vein of the human CD16 transgenic Scid mice. Mice were randomized for equal CD16 expression of NK cells and treatment started at day 12 after cell transplantation. […] Animals in the control group received PBS. All animals were controlled daily for clinical symptoms and detection of adverse effects and sacrificed according to the set termination criteria. Study termination was on study day 273. Survival data were represented with the survival curve (FIG. 1) and were statistically analyzed by Pairwise Wilcoxon and Pairwise Log-Rank test (FIG. 2).

GA101: afucosylated glycoengineered humanized B-Ly1 type II anti-CD20 IgG1 antibody
Survival difference between GA101 and rituximab single agents (Pairwise Wilcoxon test): no significant difference
Survival difference from the vehicle group (Pairwise Wilcoxon test): significantly different from the vehicle group except of GA101
Median Survival (WSU-DLCL2 i.v. in SCID CD16 tg mice, GA101/rituximab 30 mg/kg i.v. days 12, 19, 26, CD22-ADC 4 mg/kg i.v. once day 12, study end day 273): 86.5 days
Animals tumor free at the end of the study (day 273, 10 animals per group): 1 animals
Overall Survival at end of experiment (day 273) (surviving animals/10 per group, same dosing as the median survival study): 1/10
